The results in this text go back to ChEMBL document CHEMBL5233240, “hERG toxicity assessment: Useful guidelines for drug design” (Eur J Med Chem, 2020).

The target in the test is Voltage-gated inwardly rectifying potassium channel KCNH2 (Homo sapiens, UniProt Q12809). Put plainly: Inhibition of human ERG. The test is classed as toxicity.
Voltage-gated inwardly rectifying potassium channel KCNH2, sequence (Q12809 whole entry): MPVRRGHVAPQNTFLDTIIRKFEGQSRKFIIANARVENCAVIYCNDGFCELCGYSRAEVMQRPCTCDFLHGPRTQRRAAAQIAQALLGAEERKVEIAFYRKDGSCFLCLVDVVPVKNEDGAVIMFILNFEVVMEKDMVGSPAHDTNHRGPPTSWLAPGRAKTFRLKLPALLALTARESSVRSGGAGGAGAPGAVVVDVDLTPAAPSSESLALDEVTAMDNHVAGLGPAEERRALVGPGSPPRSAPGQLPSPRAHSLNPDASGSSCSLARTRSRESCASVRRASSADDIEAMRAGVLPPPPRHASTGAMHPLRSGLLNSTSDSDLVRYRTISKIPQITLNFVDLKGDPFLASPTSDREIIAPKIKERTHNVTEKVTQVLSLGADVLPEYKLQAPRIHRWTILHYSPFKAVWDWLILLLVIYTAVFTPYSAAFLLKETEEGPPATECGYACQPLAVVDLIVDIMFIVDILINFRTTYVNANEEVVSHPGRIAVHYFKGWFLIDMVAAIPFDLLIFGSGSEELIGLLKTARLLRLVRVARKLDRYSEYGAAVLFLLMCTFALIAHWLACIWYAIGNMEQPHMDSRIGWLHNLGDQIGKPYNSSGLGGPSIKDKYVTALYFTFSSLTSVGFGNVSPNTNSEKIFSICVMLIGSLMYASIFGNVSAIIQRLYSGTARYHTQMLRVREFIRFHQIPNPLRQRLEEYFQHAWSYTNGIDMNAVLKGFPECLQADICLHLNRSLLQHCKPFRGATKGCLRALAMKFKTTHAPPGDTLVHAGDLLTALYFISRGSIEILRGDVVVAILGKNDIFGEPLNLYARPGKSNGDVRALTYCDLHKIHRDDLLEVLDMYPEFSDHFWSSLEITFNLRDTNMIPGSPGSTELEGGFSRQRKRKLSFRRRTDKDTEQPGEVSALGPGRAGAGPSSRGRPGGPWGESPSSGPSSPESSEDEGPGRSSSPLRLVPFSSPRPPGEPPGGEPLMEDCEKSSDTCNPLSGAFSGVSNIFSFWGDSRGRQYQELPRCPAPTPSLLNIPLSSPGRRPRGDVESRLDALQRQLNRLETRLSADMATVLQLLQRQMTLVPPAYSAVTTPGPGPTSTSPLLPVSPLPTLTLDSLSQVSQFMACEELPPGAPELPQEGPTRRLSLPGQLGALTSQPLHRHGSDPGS

For `N#Cc1ccc(Cn2cncc2CC[C@H]2CCN(Cc3cccc(Cl)c3)C2=O)cc1`, the 50% inhibitory concentration (IC50) (in general, the concentration at which inhibition is half-maximal) was 0.44 µM.
`N#Cc1ccc2cc1Oc1ccc3c(c1)[C@@H](CCC3)N1CC[C@H](C1)NCc1cncn1-2`: the IC50 was 7 µM.
